Converted amounts (≈) assume the structure as drawn.
Experiments:
Type in all cases: cell-based
Streptococcus Pneumoniae [1] = assay: E-test, broth + horse blood trial
Experimental: Tables 14 and 15 show the results of experiment whereby a bacteria culture is grown in blood instead of broth. The experiments of Table 14 were conducted by illuminating the light-transmissive wells with a light having a wavelength of 635 nm. The experiments of Table 15 were conducted by illuminating the light-transmissive wells with a light having a wavelength of 650 nm. […] The determination of the best wavelength may or may not be based on the commercial availability of the spectral line. The choice of the optimal wavelength may or may not be determined by calculating the absorbance for various wavelengths. The choice of the optimal wavelength can also be based on the combination of the comparison with the other two methods, the commercial availability and on the calculation of the absorbance for various wavelengths.

Streptococcus Pneumoniae [2] = assay: Optical third-derivative MIC method (MICSTRIP), broth + horse blood; conditions: for MICSTRIP (MIC): broth + horse blood
From the text: (§1) The method of FIG. 1 starts at a time equal to zero, t0 (1). Preferably, said t0 is the moment a pure bacteria culture is finished being prepared. Alternatively, said t0 is the moment all wells contain both said bacteria culture and said antimicrobial drug. After the starting of the experiment each well is periodically illuminated with a light source and the intensity of the transmitted light is detected with a photodetector (2). Preferably, each well is illuminated and the intensity of the transmitted light is detected every hour (2). More preferably, each well is illuminated and the intensity of the transmitted light is detected every 5 to 15 min. After a predetermined time length, preferably after 4 hours, a first, a second and a third derivative of said measured intensity is calculated (3) in a first and a second time frame for each well. Preferably, said second time frame is the last measured time frame after the test has been running for said predetermined time length, and said first time frame is the time frame preceding the second time frame. More preferably, said first time frame is between two and three hours and said second time frame is between three and four hours. After the calculation of said derivatives, said first derivative in said second time frame of said reference well is compared to a growth speed threshold value (4). Preferably, said growth speed threshold value is 0.166 (4). If said first derivative in said second time frame of said reference well is larger than or equal to said growth speed threshold value said bacteria culture is classified as Type I (4). If said first derivative in said second time frame of said reference well is smaller than said growth speed threshold value said bacteria culture is classified as Type II (4). Subsequently, independent of the classification of the bacteria culture according to the two types, the method comprises the following steps which are performed for each well or for all wells except said reference well. Both said first and said second time frames are evaluated to see if there is an inflection point present in the second derivative in said first and/or said second time frame (5).
(§2) If said first and/or said second time frame comprise said inflection point than said third derivative in said first time frame is compared to said third derivative in said second time frame (6). If said third derivative in said first time frame is larger than said third derivative in said second time frame, then said first time frame and said second time frame are selected as a first and second time frame to be used in a minimal inhibitory concentration determination method (10). If said third derivative in said first time frame is not larger than said third derivative in said second time frame, then said well is illuminated again after a certain time period, preferably an hour, more preferably 5 to 15 min after said predetermined time length said, with a light source and the intensity of the transmitted light is detected with a photodetector forming a new time frame subsequent to said second time frame (7). A third derivative, and possibly also a first and/or a second derivative, is calculated in said new time frame (7). Further, in step (7) a new first time frame is put equal to said second time frame and a new second time frame to equal to said new time frame. Subsequently, said third derivative in said new first time frame is compared to said third derivative in said new second time frame (8). If said derivative in said new first time frame is larger than said third derivative in said new second time frame, then said new first time frame and said new second time frame are selected as a first and second time frame to be used in a minimal inhibitory concentration determination method (10). […]

Streptococcus Pneumoniae [3] = assay: BMD, broth + horse blood trial
[4] = system: Pseudomonas aeruginosa culture; assay: Optical third-derivative MIC method, culture in broth; conditions: for MIC: Pseudomonas aeruginosa
From the text: as §1, §2

[5] = system: Pseudomonas aeruginosa culture; assay: Broth microdilution (BMD)
[6] = system: Pseudomonas aeruginosa culture; assay: E-test; conditions: culture PA/2472

E-test (MIC) (Streptococcus Pneumoniae [1]; strain 2543) [µg/mL]	E-test (MIC) (Streptococcus Pneumoniae [1]; strain 2544) [µg/mL]	E-test (MIC) (Streptococcus Pneumoniae [1]; strain ATCC 49619) [µg/mL]	MICSTRIP (MIC) (Streptococcus Pneumoniae [2]; strain 2532, 635 nm) [µg/mL]	MICSTRIP (MIC) (Streptococcus Pneumoniae [2]; strain 2532, 650 nm) [µg/mL]	MICSTRIP (MIC) (Streptococcus Pneumoniae [2]; strain 2543, 635 nm) [µg/mL]	MICSTRIP (MIC) (Streptococcus Pneumoniae [2]; strain 2543, 650 nm) [µg/mL]	MICSTRIP (MIC) (Streptococcus Pneumoniae [2]; strain 2544, 635 nm) [µg/mL]	MICSTRIP (MIC) (Streptococcus Pneumoniae [2]; strain 2544, 650 nm) [µg/mL]	MICSTRIP (MIC) (Streptococcus Pneumoniae [2]; strain ATCC 49619, 635 nm) [µg/mL]	MICSTRIP (MIC) (Streptococcus Pneumoniae [2]; strain ATCC 49619, 650 nm) [µg/mL]	BMD (MIC) (Streptococcus Pneumoniae [3]; strain 2532) [µg/mL]	BMD (MIC) (Streptococcus Pneumoniae [3]; strain 2543) [µg/mL]	BMD (MIC) (Streptococcus Pneumoniae [3]; strain 2544) [µg/mL]	BMD (MIC) (Streptococcus Pneumoniae [3]; strain ATCC 49619) [µg/mL]	Structure (SMILES)	HR E-test (Streptococcus Pneumoniae [1]; strain 2532)	HR E-test (Streptococcus Pneumoniae [1]; strain 2543)	HR E-test (Streptococcus Pneumoniae [1]; strain 2544)	HR E-test (Streptococcus Pneumoniae [1]; strain ATCC 49619)	HR MICSTRIP (Streptococcus Pneumoniae [2]; strain ATCC 49619, 650 nm)	further results
1.5	0.1	0.25	0.016	0.016	1	1	0.256	0.256	0.256	0.256	0.016	2	0.256	0.256	CC1(C)S[C@@H]2[C@H](NC(=O)Cc3ccccc3)C(=O)N2[C@H]1C(=O)O [Benzyl-penicilline]	no	no	no	no	no (If the ratio of the MIC value in the second time frame over the MIC value in the first time frame is lower than or equal to 4 then the ratio is labelled not to be heteroresistant)	HR MICSTRIP (Streptococcus Pneumoniae [2]; strain 2543, 635 nm): no (If the ratio of the MIC value in the second time frame over the MIC value in the first time frame is lower than or equal to 4 then the ratio is labelled not to be heteroresistant); HR MICSTRIP (Streptococcus Pneumoniae [2]; strain 2543, 650 nm): no (If the ratio of the MIC value in the second time frame over the MIC value in the first time frame is lower than or equal to 4 then the ratio is labelled not to be heteroresistant); HR MICSTRIP (Streptococcus Pneumoniae [2]; strain ATCC 49619, 635 nm): no (If the ratio of the MIC value in the second time frame over the MIC value in the first time frame is lower than or equal to 4 then the ratio is labelled not to be heteroresistant)
0.125	0.024	0.047	0.016	0.016	0.256	0.256	0.064	0.064	0.032	> 16	0.008	0.256	0.064	0.064	CO/N=C(\C(=O)N[C@@H]1C(=O)N2C(C(=O)O)=C(CSc3nc(=O)c(=O)[nH]n3C)CS[C@H]12)c1csc(N)n1 [Ceftriaxone]	no	no	no	no	no (If the ratio of the MIC value in the second time frame over the MIC value in the first time frame is lower than or equal to 4 then the ratio is labelled not to be heteroresistant)	E-test (MIC) (Streptococcus Pneumoniae [1]; strain 2532): ≤ 0.16 µg/mL
–	–	–	–	–	–	–	–	–	–	–	–	–	–	–	CO/N=C(\C(=O)N[C@@H]1C(=O)N2C(C(=O)[O-])=C(C[N+]3(C)CCCC3)CS[C@H]12)c1csc(N)n1 [cefepime]	–	–	–	–	–	MIC ([4]; PA/2467, 5 h-6 h, only time frame, omitted from determination (Type II), read-out: MIC (25%)): 8 µg/mL (≈ 16.6 µM); MIC ([4]; PA/2467, 5 h-6 h, only time frame, read-out: MIC (40%)): 8 µg/mL (≈ 16.6 µM); MIC ([4]; PA/2467, 5 h-6 h, only time frame, read-out: MIC (60%)): 4 µg/mL (≈ 8.32 µM); MIC ([4]; PA/2467, 5 h-6 h, only time frame, read-out: MIC (75%)): 4 µg/mL (≈ 8.32 µM); MIC ([4]; PA/2467, FIG. 5F, overall conclusion, read-out: MIC value determined by the method): 8 µg/mL (≈ 16.6 µM); MIC ([5]; culture PA/2467): 16 µg/mL (≈ 33.3 µM)
–	–	–	–	–	–	–	–	–	–	–	–	–	–	–	CC(C)(O/N=C(\C(=O)N[C@@H]1C(=O)N2C(C(=O)[O-])=C(C[n+]3ccccc3)CS[C@H]12)c1csc(N)n1)C(=O)O [ceftazidime]	–	–	–	–	–	heteroresistance determined by the method ([4]; PA/2472, FIG. 5E, overall conclusion): not heteroresistant; HR? at MIC (40%) ([4]; PA/2472, ratio MIC T2/T1): no (If the ratio of the MIC value in the second time frame over the MIC value in the first time frame is lower than or equal to 4 then the ratio is labelled not to be heteroresistant); HR? at MIC (60%) ([4]; PA/2472, ratio MIC T2/T1): no (If the ratio of the MIC value in the second time frame over the MIC value in the first time frame is lower than or equal to 4 then the ratio is labelled not to be heteroresistant); HR? at MIC (75%) ([4]; PA/2472, ratio MIC T2/T1): no (If the ratio of the MIC value in the second time frame over the MIC value in the first time frame is lower than or equal to 4 then the ratio is labelled not to be heteroresistant); HR? at MIC (25%) ([4]; PA/2472, ratio MIC T2/T1, omitted (Type II)): no (If the ratio of the MIC value in the second time frame over the MIC value in the first time frame is lower than or equal to 4 then the ratio is labelled not to be heteroresistant); MIC ([4]; PA/2472, 3 h-4 h, omitted from determination (Type II), read-out: MIC (25%) T1): 64 µg/mL (≈ 117 µM); MIC ([4]; PA/2472, 3 h-4 h, read-out: MIC (40%) T1): 32 µg/mL (≈ 58.5 µM); MIC ([4]; PA/2472, 3 h-4 h, read-out: MIC (60%) T1): 32 µg/mL (≈ 58.5 µM); MIC ([4]; PA/2472, 3 h-4 h, read-out: MIC (75%) T1): 32 µg/mL (≈ 58.5 µM); MIC ([4]; PA/2472, 5 h-6 h, omitted from determination (Type II), read-out: MIC (25%) T2): 64 µg/mL (≈ 117 µM); MIC ([4]; PA/2472, 5 h-6 h, read-out: MIC (40%) T2): 32 µg/mL (≈ 58.5 µM); MIC ([4]; PA/2472, 5 h-6 h, read-out: MIC (60%) T2): 32 µg/mL (≈ 58.5 µM); MIC ([4]; PA/2472, 5 h-6 h, read-out: MIC (75%) T2): 32 µg/mL (≈ 58.5 µM); MIC ([4]; PA/2472, FIG. 5E, overall conclusion, read-out: MIC value determined by the method): 32 µg/mL (≈ 58.5 µM); MIC ([6]; Pseudomonas aeruginosa): 32 µg/mL (≈ 58.5 µM); HR? (E-test) [6]: no; MIC ([5]; culture PA/2472): 32 µg/mL (≈ 58.5 µM)

From US20220389477A1, “METHOD FOR EVALUATING ANTIBIOTIC SUSCEPTIBILITY” (Vrije Universiteit Brussel, priority 2019, published 2022)
